Data reported in publication PMC9606187, “Dual HDAC/BRD4 Inhibitors Relieves Neuropathic Pain by Attenuating Inflammatory Response in Microglia After Spared Nerve Injury” (Neurotherapeutics, 2022).

Legend:
naïve mice = assay: Hot plate test, acute thermal pain in naïve mice; format: in vivo
From the text: Mice were randomly assigned to each treatment group. To evaluate the pharmacological profile of SUM35 (N-hydroxy-6-(1-methyl-6-phenyl-4H-benzo[f][1,2,4]triazolo[4,3-a][1,4]diazepin-8-yl)hex-5-ynamide), SUM52 ((S)-N-hydroxy-7-(2-(1-methyl-6-phenyl-4H-benzo[f][1,2,4]triazolo[4,3-a][1,4]diazepin-4-yl)acetamido)heptanamide) (Fig. 1F), synthesized in the laboratory of Prof. Maria Novella Romanelli, iBET762 (molibresib; (4S)-6-(4-Chlorophenyl)-N-ethyl-8-methoxy-1-methyl-4H-[1,2,4]triazolo[4,3,a][1,4] benzodiazepine-4-acetamide, and SAHA (vorinostat; suberoylanilide hydroxamic acid) (Sigma-Aldrich, Italy) were administered 15 min before the tests. Drugs were dissolved in 5% DMSO. Drug concentrations were prepared in such a way that the necessary dose could be administered in a volume of 10 µl per mouse by intranasal (i.n.) administration. The experimental protocol to test the effect of treatments on behavioral and in vitro tests included 3 control groups: untreated, vehicle (5% DMSO), and saline. A representative figure of the experimental protocol in naïve (C) and SNI (F) mice has been inserted in Supplementary Fig. 1.
For i.n. administration, mice were slightly anesthetized by 2% isoflurane inhalation and placed in a supine position. A 5 μl aliquot of solution (treatments or vehicle) was slowly dropped alternatively to each nostril with a micropipette tip.
Animals were habituated to the testing environment daily for at least 2 days before baseline testing. To evaluate onset and progression of pain hypersensitivity, neuropathic mice were monitored by measuring nociceptive responses every 30 min for 3 h before surgery or 3, 7, 10, and 14 days after nerve surgery. Experiments were performed on post-surgery day 7 and 14 when the pain hypersensitivity was well established. Each mouse served as its own control, the responses being measured both before and after surgery. All testing was performed with a blind procedure.

SNI mice = assay: Mechanical allodynia (Dynamic Plantar Aesthesiometer) in SNI mice; format: in vivo
Protocol: Mice were randomly assigned to each treatment group. […] Maria Novella Romanelli, iBET762 (molibresib; (4S)-6-(4-Chlorophenyl)-N-ethyl-8-methoxy-1-methyl-4H-[1,2,4]triazolo[4,3,a][1,4] benzodiazepine-4-acetamide, and SAHA (vorinostat; suberoylanilide hydroxamic acid) (Sigma-Aldrich, Italy) were administered 15 min before the tests. Drugs were dissolved in 5% DMSO. Drug concentrations were prepared in such a way that the necessary dose could be administered in a volume of 10 µl per mouse by intranasal (i.n.) administration. The experimental protocol to test the effect of treatments on behavioral and in vitro tests included 3 control groups: untreated, vehicle (5% DMSO), and saline.
For i.n. administration, mice were slightly anesthetized by 2% isoflurane inhalation and placed in a supine position [30]. A 5 μl aliquot of solution (treatments or vehicle) was slowly dropped alternatively to each nostril with a micropipette tip.
Behavioral testing was performed before surgery to establish a baseline for comparison with post-surgical values. Mono-neuropathy was induced by spared nerve injury and this model of pain in mice has been in use for several years [31]. The SNI procedure was performed as previously described [31].
Mechanical allodynia was measured by using Dynamic Plantar Aesthesiometer (Ugo Basile, Bologna, Italy), as described [32]. Nociceptive response for mechanical sensitivity was expressed as mechanical paw withdrawal threshold (PWT) in grams. PWT was quantified by an observer blinded to the treatment.

BRD4 = assay: Western blot of lumbar spinal cord, BRD4; format: in vivo, mice; conditions: SNI ipsilateral side, day 7 and 14 post-surgery, i.n.
Protocol: (§1) The lumbar spinal cord was removed 7 and 14 days after surgery and 90 min after the intranasal administration of SUM52, corresponding to the peack of the effect. Samples (n = 4 for groups) were homogenized in a homogenization buffer and processed as previously described. Protein samples (40 µg of protein/sample) were separated on 10% SDS-PAGE and transferred onto nitrocellulose membranes (120 min at 100 V) using standard procedures. Membranes were blocked in PBST (PBS containing 0.1% Tween) containing 5% nonfat dry milk for 120 min. […] Blots were then extensively washed and developed using enhanced chemiluminescence detection system (Pierce, Milan, Italy) and signal intensity (pixels/mm^2) quantified (ImageJ, NIH). […] For each sample, the signal intensity was normalized to that of total protein stained by Ponceau S and the acquired images were quantified using Image Lab software. […]

IL-6 = assay: Western blot of lumbar spinal cord, IL-6; format: in vivo, mice; conditions: SNI ipsilateral side, day 7 and 14
Protocol: as §1

IL-1ß = assay: Western blot of lumbar spinal cord, IL-1ß; format: in vivo, mice; conditions: SNI ipsilateral side, day 7 and 14
Protocol: as §1

Cc1nnc2n1-c1ccccc1C(c1ccccc1)=N[C@H]2CC(=O)NCCCCCCC(=O)NO [SUM52, (S)-N-hydroxy-7-(2-(1-methyl-6-phenyl-4H-benzo[f][1,2,4]triazolo[4,3-a][1,4]diazepin-4-yl)acetamido)heptanamide]
thermal antinociceptive effect (hot plate) (naïve mice; 5 µM i.n., 90 min after administration): ineffective | thermal antinociceptive effect (hot plate) (naïve mice; 50 µM i.n., 90 min after administration): trend toward an increase in the pain threshold | time at which the antinociceptive effect disappeared (hot plate) (naïve mice; 100 µM i.n.): 120 min | time of peak of antinociceptive activity (hot plate) (naïve mice; 100 µM i.n.): 90 min | thermal antinociceptive effect (hot plate) (naïve mice; 100 µM i.n., normalized to control, compared to SUM35 100 µM): significant analgesic effect | thermal antinociceptive effect (hot plate), whole dose range (naïve mice; 5 to 500 µM i.n.): showed thermal antinociceptive effects | thermal antinociceptive effect (hot plate) (naïve mice; doses higher than 100 µM (up to 500 µM) i.n.): progressive reduction of efficacy | mechanical antiallodynic activity, ipsilateral side (SNI mice; 10–100 µM i.n.): attenuated SNI-induced mechanical allodynia | duration of activity in attenuating mechanical allodynia compared with SUM35 (SNI mice; SUM52 50 µM vs SUM35 100 µM): more prolonged activity | efficacy in attenuating mechanical allodynia compared with SUM35 (SNI mice; SUM52 50 µM vs SUM35 100 µM, day 7 and 14 post-surgery): higher efficacy | mechanical analgesic effect in the contralateral side (SNI mice; contralateral (uninjured) side of SNI mice): absence | mechanical antiallodynic efficacy compared with SAHA + iBET762 combination (SNI mice; time-course comparison, combination i-BET762 10 µg, SAHA 3 µg): comparable efficacy | spinal BRD4 protein expression (BRD4): restored both epigenetic enzyme levels to control values | IL-6 expression (IL-6): drastically reduced | IL-1ß expression (IL-1ß): drastically reduced
